What was measured:
[1] = partial pressure of water over aqueous 2-hydroxyethylammonium formate solution, FTIR spectroscopy in the gas phase; assay type: physicochemical
Protocol: For this purpose, the partial pressure of water over an aqueous 2-hydroxyethylammonium formate solution was determined at a customary phase equilibrium temperature (by means of FTIR spectroscopy in the gas phase).

[2] = miscibility of ionic liquid with working substance water; assay type: physicochemical

Row | SMILES | factor by which the vapor pressure of water is reduced on dissolution in the ionic liquid [1] | partial pressure of water over the solution ([1]; 30.5° C., 84% by weight of 2-hydroxyethylammonium formate and 16% by weight of water, water itself about 40 mbar) | partial pressure of water over the solution ([1]; 34° C., 87% by weight of 2-hydroxyethylammonium formate and 13% by weight of water, water itself about 50 mbar) | miscibility with water [2]
1 | NCCO.O=CO [2-hydroxyethylammonium formate] | 4 | about 10 mbar | about 12 mbar | –
2 | CCn1cc[n+](C)c1.O=S(=O)([O-])C(F)(F)F [ethylmethylimidazolium triflate] | – | – | – | can be mixed with water

— patent US9062899B2, “Pairs of working substances for absorption heat pumps, absorption refrigeration machines and heat transformers” (BASF SE, priority 2004, dated 2015)
